The source made the active and inactive calls. The rule behind the calls is not given here.
How the values were obtained:
[1] = Tmax in C57BL/6J mouse at 1 mg/kg, sc measured during 5 mins to 24 hrs by LC/MS/MS method; type: ADME, organism-based; details: in vivo
[2] = biological target: T1, Neuropeptide Y receptor type 1 (Homo sapiens, UniProt P25929); test: Agonist activity at human neuropeptide Y1 receptor by [35S]GTPgammaS binding assay; type: functional
T1 sequence (P25929 whole entry): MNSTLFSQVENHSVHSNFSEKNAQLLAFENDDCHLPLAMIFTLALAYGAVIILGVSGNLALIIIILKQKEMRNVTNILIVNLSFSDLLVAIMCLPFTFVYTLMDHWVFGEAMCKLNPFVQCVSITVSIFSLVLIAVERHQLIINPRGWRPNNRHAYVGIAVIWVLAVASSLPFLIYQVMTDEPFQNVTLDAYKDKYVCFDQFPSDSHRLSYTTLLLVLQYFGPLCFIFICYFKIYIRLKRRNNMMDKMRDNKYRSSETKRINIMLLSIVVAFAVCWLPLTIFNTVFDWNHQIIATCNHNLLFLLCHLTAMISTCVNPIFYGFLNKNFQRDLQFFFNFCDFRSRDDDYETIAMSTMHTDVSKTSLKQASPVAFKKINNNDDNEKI

[3] = AUC (0 to 24 hrs) in C57BL/6J mouse at 1 mg/kg, iv measured during 5 mins to 24 hrs by LC/MS/MS method; type: ADME, organism-based; set-up: dose 1 mg/kg, time < 24 hr, route intravenous; details: in vivo
Mus musculus [4] = test: Antiobesity activity in DIO C57BL/6J mouse assessed as reduction in body weight at 0.01 mg/kg, sc for 2 weeks dosed as continuous administration by infusion of osmotic pumps relative to untreated control; type: functional; set-up: scale not given: the % may be the effect or the level left
Mus musculus [5] = test: Antiobesity activity in DIO C57BL/6J mouse assessed as reduction in perirenal weight at 0.003 to 0.03 mg/kg, sc for 2 weeks dosed as continuous administration by infusion of osmotic pumps relative to untreated control; type: functional, organism-based

CC[C@](C)(NC(=O)[C@H]1C[C@H](O)CN1C(=O)[C@H](CO)NC(=O)c1c[nH]cn1)C(=O)N[C@@H](Cc1ccncc1)C(=O)N[C@@H](CC1CCCCC1)C(=O)N[C@@H](CC(C)(C)C)C(=O)N[C@@H](CC(N)=O)C(=O)N[C@@H](CCCCN)C(=O)NC(C)(C)C(=O)N[C@H](C(=O)N[C@@H](CCCNC(=N)N)C(=O)N[C@@H](CCC(N)=O)C(=O)N[C@@H](CCCNC(=N)N)C(=O)N[C@@H](CC1CCCCC1)C(N)=O)[C@@H](C)O
Tmax [1]: 10.2 min | EC50 [2]: > 1000 nM | AUC(0-t) at 24 h [3]: 0.577 µM·h | Activity (Mus musculus [4]): 8.3% | Activity (Mus musculus [5]): Active

— ChEMBL document CHEMBL4177573 (Bioorg Med Chem, 2017)
